Measured values reported in patent US9624209B2, “Substituted phenylureas and phenylamides as vanilloid receptor ligands” (Gruenenthal GmbH, priority 2009, dated 2017).

Target: T1, vanilloid receptor 1 (VR1/TRPV1 receptor) (Homo sapiens, UniProt Q8NER1)
T1 construct: expressed in transfected cells; host or cells: CHO K1 cells (ECACC), stably transfected
Experiment: VR1/TRPV1 receptor affinity, capsaicin stimulus (human)
Format: cell-based, human being
Parameters: key to (f) Ki (human being) [nM] Cap: result in words: AG=agonist; pAG=partial agonist; NE=no effect
Settings: @ 5 μM, Tables 8-12, read-out: (f) Ki (human being) [nM] Cap: inhibition (as a percentage)

T1 sequence (Q8NER1 whole entry): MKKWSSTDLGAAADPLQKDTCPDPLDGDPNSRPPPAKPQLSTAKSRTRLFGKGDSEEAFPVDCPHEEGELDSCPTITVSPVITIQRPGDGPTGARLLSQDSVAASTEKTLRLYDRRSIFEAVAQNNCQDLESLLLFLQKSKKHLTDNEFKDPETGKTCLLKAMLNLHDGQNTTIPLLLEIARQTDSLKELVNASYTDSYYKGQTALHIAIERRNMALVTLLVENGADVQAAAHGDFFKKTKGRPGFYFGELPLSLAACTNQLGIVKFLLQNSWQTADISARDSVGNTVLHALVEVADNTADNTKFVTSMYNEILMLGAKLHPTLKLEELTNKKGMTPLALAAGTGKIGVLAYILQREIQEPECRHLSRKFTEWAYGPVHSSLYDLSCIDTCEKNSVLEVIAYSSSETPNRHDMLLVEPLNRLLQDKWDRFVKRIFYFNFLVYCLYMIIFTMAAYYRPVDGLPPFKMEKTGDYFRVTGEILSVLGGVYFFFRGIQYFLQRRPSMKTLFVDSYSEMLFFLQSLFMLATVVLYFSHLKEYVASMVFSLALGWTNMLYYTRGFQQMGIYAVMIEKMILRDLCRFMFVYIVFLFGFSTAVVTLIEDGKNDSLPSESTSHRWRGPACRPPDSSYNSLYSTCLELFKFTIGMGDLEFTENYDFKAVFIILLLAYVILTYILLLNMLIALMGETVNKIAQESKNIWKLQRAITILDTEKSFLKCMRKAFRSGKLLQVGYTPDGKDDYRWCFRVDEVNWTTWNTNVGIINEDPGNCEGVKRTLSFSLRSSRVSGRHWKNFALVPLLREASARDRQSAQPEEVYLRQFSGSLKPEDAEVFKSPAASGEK

| inhibition at 5 µM [%] | Compound |
| --- | --- |
| 36 | CC(C(=O)NCc1cc(C(F)(F)F)nn1-c1cccc(Cl)c1)c1ccc(CN(C)C)c(F)c1 (stereo not drawn) [Example B65, N-[[2-(3-Chlorophenyl)-5-(trifluoromethyl)-2H-pyrazol-3-yl]-methyl]-2-[4-(dimethylaminomethyl)-3-fluoro-phenyl]-propionamide] |

Same assay, conditions: Tables 8-12

| (f) Ki (human being) [nM] Cap: result in words | Compound |
| --- | --- |
| AG | CC(=O)NCc1ccc(C(C)C(=O)NCc2cc(C(C)(C)C)nn2-c2cccc(Cl)c2)cc1F (stereo not drawn) [Example B67, 2-[4-(Acetylamino-methyl)-3-fluoro-phenyl]-N-[[5-tert-butyl-2-(3-chlorophenyl)-2H-pyrazol-3-yl]-methyl]-propionamide] |

Same assay, conditions: Tables 8-12, read-out: (f) Ki (human being) [nM] Cap

| Ki [nM] | Compound |
| --- | --- |
| 40 | CS(=O)(=O)NCc1ccc(NC(=O)NCc2cc(C(F)(F)F)nn2-c2cccc(F)c2)cc1F [Example B48, 1-[3-Fluoro-4-(methanesulfonamido-methyl)-phenyl]-3-[[2-(3-fluorophenyl)-5-(trifluoromethyl)-2H-pyrazol-3-yl]-methyl]-urea] |
| 15 | CC(C)(C)c1cc(CNC(=O)Nc2ccc(CNS(C)(=O)=O)c(F)c2)n(-c2cccc(F)c2)n1 [Example B50, 1-[[5-tert-Butyl-2-(3-fluorophenyl)-2H-pyrazol-3-yl]-methyl]-3-[3-fluoro-4-(methanesulfonamido-methyl)-phenyl]-urea] |
| 33 | CC(C)(C)c1cc(CNC(=O)Nc2ccc(CNS(C)(=O)=O)c(F)c2)n(-c2ccc(F)cc2)n1 [Example B53, 1-[[5-tert-Butyl-2-(4-fluorophenyl)-2H-pyrazol-3-yl]-methyl]-3-[3-fluoro-4-(methanesulfonamido-methyl)-phenyl]-urea] |
| 8 | CC(C)(C)c1cc(CNC(=O)Nc2ccc(CNS(C)(=O)=O)c(F)c2)n(-c2cccc(C(F)(F)F)c2)n1 [Example B54, 1-[[5-tert-Butyl-2-[3-(trifluoromethyl)phenyl]-2H-pyrazol-3-yl]-methyl]-3-[3-fluoro-4-(methanesulfonamido-methyl)-phenyl]-urea] |
| 56 | CC(C)(C)c1cc(CNC(=O)Nc2ccc(CNS(N)(=O)=O)cc2)n(-c2cccc(F)c2)n1 [Example B56, 1-[[5-tert-Butyl-2-(3-fluorophenyl)-2H-pyrazol-3-yl]-methyl]-3-[4-[(sulfamoylamino)-methyl]-phenyl]-urea] |
| 16 | CC(C)(C)c1cc(CNC(=O)Nc2ccc(CNS(N)(=O)=O)c(F)c2)n(-c2cccc(F)c2)n1 [Example B59, 1-[[5-tert-Butyl-2-(3-fluorophenyl)-2H-pyrazol-3-yl]-methyl]-3-[3-fluoro-4-[(sulfamoylamino)-methyl]-phenyl]-urea] |
| 25 | NS(=O)(=O)NCc1ccc(NC(=O)NCc2cc(C(F)(F)F)nn2-c2cccc(F)c2)cc1F [Example B60, 1-[[2-(3-Fluorophenyl)-5-(trifluoromethyl)-2H-pyrazol-3-yl]-methyl]-3-[3-fluoro-4-[(sulfamoylamino)-methyl]-phenyl]-urea] |
| 30 | CC(C)(C)c1cc(CNC(=O)Nc2ccc(CNS(N)(=O)=O)c(F)c2)n(-c2ccc(F)c(F)c2)n1 [Example B69, 1-[[5-tert-Butyl-2-(3,4-difluoro-phenyl)-2H-pyrazol-3-yl]-methyl]-3-[3-fluoro-4-[(sulfamoylamino)-methyl]-phenyl]-urea] |
| 13 | CC(C)(C)c1cc(CNC(=O)Nc2ccc(CNS(C)(=O)=O)c(F)c2)n(-c2ccc(F)c(F)c2)n1 [Example B72, 1-[[5-tert-Butyl-2-(3,4-difluoro-phenyl)-2H-pyrazol-3-yl]-methyl]-3-[3-fluoro-4-(methanesulfonamido-methyl)-phenyl]-urea] |

Further lines, the compound ahead of its results:

| Compound | Ki [nM] |
| --- | --- |
| CS(=O)(=O)NCc1ccc(NC(=O)NCc2cc(C(F)(F)F)nn2-c2ccc(F)c(F)c2)cc1F [Example B49, 1-[[2-(3,4-Difluoro-phenyl)-5-(trifluoromethyl)-2H-pyrazol-3-yl]-methyl]-3-[3-fluoro-4-(methanesulfonamido-methyl)-phenyl]-urea] | 11 |
| CC(C)(C)c1cc(CNC(=O)Nc2ccc(CNS(C)(=O)=O)c(F)c2)n(-c2ccc(F)c(Cl)c2)n1 [Example B51, 1-[[5-tert-Butyl-2-(3-chloro-4-fluoro-phenyl)-2H-pyrazol-3-yl]-methyl]-3-[3-fluoro-4-(methanesulfonamido-methyl)-phenyl]-urea] | 15 |
| CS(=O)(=O)NCc1ccc(NC(=O)NCc2cc(C(F)(F)F)nn2-c2cccc(Cl)c2)cc1F [Example B52, 1-[[2-(3-Chlorophenyl)-5-(trifluoromethyl)-2H-pyrazol-3-yl]-methyl]-3-[3-fluoro-4-(methanesulfonamido-methyl)-phenyl]-urea] | 9 |
| CS(=O)(=O)NCc1ccc(NC(=O)NCc2cc(C(F)(F)F)nn2-c2cccc(C(F)(F)F)c2)cc1F [Example B55, 1-[3-Fluoro-4-(methanesulfonamido-methyl)-phenyl]-3-[[5-(trifluoromethyl)-2-[3-(trifluoromethyl)phenyl]-2H-pyrazol-3-yl]-methyl]-urea] | 27 |
| NS(=O)(=O)NCc1ccc(NC(=O)NCc2cc(C(F)(F)F)nn2-c2ccc(F)c(F)c2)cc1 [Example B57, 1-[[2-(3,4-Difluoro-phenyl)-5-(trifluoromethyl)-2H-pyrazol-3-yl]-methyl]-3-[4-[(sulfamoylamino)-methyl]-phenyl]-urea] | 58 |
| COc1cccc(-n2nc(C(F)(F)F)cc2CNC(=O)Nc2ccc(CNS(C)(=O)=O)c(F)c2)c1 [Example B58, 1-[3-Fluoro-4-(methanesulfonamido-methyl)-phenyl]-3-[[2-(3-methoxyphenyl)-5-(trifluoromethyl)-2H-pyrazol-3-yl]-methyl]-urea] | 16 |
| NS(=O)(=O)NCc1ccc(NC(=O)NCc2cc(C3CC3)nn2-c2cccc(Cl)c2)cc1F [Example B61, 1-[[2-(3-Chlorophenyl)-5-cyclopropyl-2H-pyrazol-3-yl]-methyl]-3-[3-fluoro-4-[(sulfamoylamino)-methyl]-phenyl]-urea] | 8 |
| NS(=O)(=O)NCc1ccc(NC(=O)NCc2cc(C(F)(F)F)nn2-c2ccc(F)c(F)c2)cc1F [Example B62, 1-[[2-(3,4-Difluoro-phenyl)-5-(trifluoromethyl)-2H-pyrazol-3-yl]-methyl]-3-[3-fluoro-4-[(sulfamoylamino)-methyl]-phenyl]-urea] | 36 |
| CNCc1ccc(C(C)C(=O)NCc2cc(C(C)(C)C)nn2-c2cccc(Cl)c2)cc1F (stereo not drawn) [Example B63, N-[[5-tert-Butyl-2-(3-chlorophenyl)-2H-pyrazol-3-yl]-methyl]-2-[3-fluoro-4-(methylamino-methyl)-phenyl]-propionamide] | 30 |
| CC(C(=O)NCc1cc(C(C)(C)C)nn1-c1cccc(Cl)c1)c1ccc(CN(C)C)c(F)c1 (stereo not drawn) [Example B64, N-[[5-tert-Butyl-2-(3-chlorophenyl)-2H-pyrazol-3-yl]-methyl]-2-[4-(dimethylaminomethyl)-3-fluoro-phenyl]-propionamide] | 45 |
| CC(=O)NCc1ccc(C(C)C(=O)NCc2cc(C(F)(F)F)nn2-c2cccc(Cl)c2)cc1F (stereo not drawn) [Example B66, 2-[4-(Acetylamino-methyl)-3-fluoro-phenyl]-N-[[2-(3-chlorophenyl)-5-(trifluoromethyl)-2H-pyrazol-3-yl]-methyl]-propionamide] | 29 |
| Cc1cccc(-n2nc(C(F)(F)F)cc2CNC(=O)C(C)c2ccc(CNS(C)(=O)=O)c(F)c2)c1 (stereo not drawn) [Example B68, 2-[3-Fluoro-4-(methanesulfonamido-methyl)-phenyl]-N-[[2-(m-tolyl)-5-(trifluoromethyl)-2H-pyrazol-3-yl]-methyl]-propionamide] | 4 |
| NS(=O)(=O)NCc1ccc(NC(=O)NCc2cc(C(F)(F)F)nn2-c2ccc(F)c(Cl)c2)cc1F [Example B70, 1-[[2-(3-Chloro-4-fluoro-phenyl)-5-(trifluoromethyl)-2H-pyrazol-3-yl]-methyl]-3-[3-fluoro-4-[(sulfamoylamino)-methyl]-phenyl]-urea] | 14 |
| COc1cccc(-n2nc(C(F)(F)F)cc2CNC(=O)Nc2ccc(CNS(N)(=O)=O)c(F)c2)c1 [Example B71, 1-[3-Fluoro-4-[(sulfamoylamino)-methyl]-phenyl]-3-[[2-(3-methoxyphenyl)-5-(trifluoromethyl)-2H-pyrazol-3-yl]-methyl]-urea] | 41 |
| CC(C)c1cccc(-n2nc(C(F)(F)F)cc2CNC(=O)Nc2ccc(CNS(C)(=O)=O)c(F)c2)c1 [Example B73, 1-[3-Fluoro-4-(methanesulfonamido-methyl)-phenyl]-3-[[2-(3-isopropyl-phenyl)-5-(trifluoromethyl)-2H-pyrazol-3-yl]-methyl]-urea] | 3 |
| CC(C)(C)c1cc(CNC(=O)Nc2ccc(CNS(N)(=O)=O)cc2)n(-c2ccc(F)c(F)c2)n1 [Example B74, 1-[[5-tert-Butyl-2-(3,4-difluoro-phenyl)-2H-pyrazol-3-yl]-methyl]-3-[4-[(sulfamoylamino)-methyl]-phenyl]-urea] | 37 |
| NS(=O)(=O)NCc1ccc(NC(=O)NCc2cc(C3CC3)nn2-c2cccc(Cl)c2)cc1 [Example B75, 1-[[2-(3-Chlorophenyl)-5-cyclopropyl-2H-pyrazol-3-yl]-methyl]-3-[4-[(sulfamoylamino)-methyl]-phenyl]-urea] | 19 |
| COc1cc(C(C)C(=O)NCc2cc(C(F)(F)F)nn2-c2cccc(Cl)c2)ccc1CNS(C)(=O)=O (stereo not drawn) [Example B76, N-[[2-(3-Chlorophenyl)-5-(trifluoromethyl)-2H-pyrazol-3-yl]-methyl]-2-[4-(methanesulfonamido-methyl)-3-methoxy-phenyl]-propionamide] | 12 |
| NS(=O)(=O)NCc1ccc(NC(=O)NCc2cc(C(F)(F)F)nn2-c2cccc(F)c2)cc1 [Example B77, 1-[[2-(3-Fluorophenyl)-5-(trifluoromethyl)-2H-pyrazol-3-yl]-methyl]-3-[4-[(sulfamoylamino)-methyl]-phenyl]-urea] | 44 |
